# Laboratory results reported in patent publication US4666900A, “Anti-ulcer and anti-hypersecretion dibenzoimidazothiazepine derivatives, compositions, and method of use therefor” (John Wyeth & Brother Ltd., priority 1985, dated 1987).
# Read-outs that look alike come from different tables or passages of the source.
# System: rabbit isolated gastric glands
# Experiment: Inhibition of secretagogue-stimulated C-aminopyrine uptake in rabbit isolated gastric glands (anti-secretory activity, H+/K+ ATPase)
# Type: cell-based
# Settings: 10^-4 M test compound, % inhibition of maximum response to secretagogue; for inhibition at 100 µM: Oryctolagus cuniculus
# Protocol: Compounds of formula I were tested for anti-secretory activity by their ability to inhibit the effect of one or two secretagogues on isolated gastric glands.
# Potential inhibitors of the highly specific proton transporting enzyme H^+ /K^+ ATPase were evaluated by a technique involving the measurement of aminopyrine accumulation in rabbit isolated gastric glands. Aminopyrine accumulates in acid-secreting cells; therefore, uptake of aminopyrine is increased by secretagogues and an inhibitor of acid secretion will reduce the response to one or more secretagogues depending upon its site of action. Compounds which reduce the response to dibutyryl cyclic adenosine monophosphate (DBcAMP) stimulation are assumed to have an intracellular site of action, and those which reduce the response to both DBcAMP and high potassium ion concentration (K^+) are thought to have an intracellular site of action at the secretory surface of the parietal cell, involving the highly specific proton-transporting enzyme, H^+ /K^+ ATPase.
# The following procedure is used:
# Rabbit glands are isolated from gastric mucosa from the corpus region of the stomach by a method based on one described by Berglindh T., Obrink K. J., Acta Physiol. Scand. 96, 150-159 (1976). Measurement of aminopyrine uptake is carried out using a procedure based on the method described by Berglindh T., Hellander H. F., Obrink K. J. (ibid. 97 401-414, 1976).
# Compounds are tested at a concentration of 10^-4 M, for their ability to inhibit C-aminopyrine uptake in gastric glands, stimulated by DBcAMP and high K^+ respectively. Results are expressed as the % inhibition of the maximum response to the secretagogue induced by the test compound.
# [1] = high K+-stimulated aminopyrine uptake, read-out: % Inhibition to stimulation by: k+
# [2] = DBcAMP-stimulated aminopyrine uptake, read-out: % Inhibition to stimulation by: DBcAMP
SMILES,% Inhibition to stimulation by: DBcAMP (DBcAMP-stimulated aminopyrine uptake),inhibition at 100 µM [1],% Inhibition to stimulation by: k+ (high K+-stimulated aminopyrine uptake),inhibition at 100 µM [2]
"Cc1cc2nc3n(c2cc1C)Cc1ccccc1CS3 [8,13-Dihydro-4,5-dimethyldibenzo[d,h]imidazo[2,1-b][1,3]thiazepine]",ns,80%,–,–
"[O-][S+]1Cc2ccccc2Cn2c1nc1ccccc12 (stereo not drawn) [8,13-Dihydrodibenz[d,h]imidazo[2,1-b][1,3]thiazepine-1-oxide]",–,–,ns,31%
"c1ccc2c(c1)CSc1nc3ccccc3n1C2 [8,13-Dihydrodibenzo[d,h]imidazo[2,1-b][1,3]thiazepine]",–,94%,–,32%
